Measured values from patent publication US20180021405A1, “NUTRITIONAL APPROACH TO THE CONTROL OF ANEMIA, DIABETES AND OTHER DISEASES OR CONDITIONS AND PREVENTION OF ASSOCIATED COMORBID STATES WITH THE USE OF ERGOTHIONEINE” (priority 2011, published 2018).

Key:
[1] = mushroom test meal, 8 g and 16 g mushroom powder; cited from earlier work
[2] = system: Alzheimer's disease mutant fruit fly (APP over-expression); assay: survival and life span in Alzheimer's disease (AD) model flies; parameters: species or system Drosophila; conditions: in vivo
Description: Type of Model (with specific Drosophila model of neurodegeneration). The targeted over/ectopic expression of APP in the brain using a UAS promoter driven APP transgene, induced by a specific GAL4 trans-driver in the brain of a Drosophila model system, was used for this Example.
The AD strain lives only for a few days after their eclosion (birth) as opposed to 65 days or more for wild type normal strains.
We determined the extension of life span in the mutant strain for each test compound. We used a specific GAL4 driver that induces the APP gene in the central brain area at high levels (see above) and results in a fully penetrant lethality within a 2-3 weeks period.

Drosophila melanogaster = assay: survival under Paraquat-induced oxidative stress; format: in vivo; conditions: 10 mM Paraquat
Method: The effect of Agaricus Blazei without enrichment, with Vitamin D2 enrichment, pure Vitamin D2 and control (vehicle for the delivery) on the survival rate of Drosophila melanogaster under Paraquat-induced oxidative stress condition was tested. The study focused on the control of Paraquat induced oxidative stress/biologic death. Paraquat is a very potent oxidative stress inducing chemical and causes death in animals and plants by the toxicity of released free radicals. Paraquat (10 mM concentration) (Sigma Aldrich) was used to chemically induce oxidative stress. Paraquat is the trade name for N,N′-dimethyl-4,4′-bipyridinium dichloride, a widely used herbicide. Paraquat, a viologen, is quick-acting and non-selective, killing green plant tissue on contact. It is also toxic to humans when swallowed. This is the most standard chemical used in experimental induction of oxidative stress using the Drosophila model system. It catalyzes the formation of reactive oxygen species (ROS). Paraquat will undergo redox cycling in vivo, gets reduced by an electron donor such NADPH, before being oxidized by an electron receptor such as dioxygen to produce superoxide, a major ROS.
The following materials and methods were utilized. Vials containing 10 mM Paraquat (from Sigma Aldrich) in 5 ml of 1.2% Low melting point Agarose medium were prepared. A strip of half moist filter paper was inserted in the medium (with the wet end in). Yeast paste containing 1% concentration (w/w) of the various test materials (see above) mixed to homogeneity was prepared. Yeast paste without drug was used as control. Uniform aliquot (˜300 mg) of yeast paste with or without the test material) was applied to vials in such a way that yeast paste was on the glass surface and covered the dry end (top) of the filter paper strip. Freshly enclosed wild type isogenized Canton-S males and females were collected and starved on 1% agar medium for 5-6 hours. Four males and females were transferred to the vial containing 10 mM Paraquat in LMP agarose medium and yeast paste with +/− test material (8 flies per vial). 6 vials were used per experiment. Vials with flies were placed horizontally in a tray. The experiment was conducted at 25 degrees C. temperature. Flies were transferred once in 2 days and the number of flies surviving at each transfer was recorded.

[3] = system: vitamin D-deficient dialysis patients; conditions: 81 patients; cited from earlier work
hemodialysis patients = conditions: human, in vivo; cited from earlier work

| Compound | bioavailability of ET from mushrooms [1] | time of ET peak in red blood cells after mushroom consumption [1] | survival rate of AD flies relative to control [2] | effect on survival under Paraquat-induced oxidative stress (words) (Drosophila melanogaster) | patients able to reach 25-D levels of 30 ng/mL or greater [3] | patients requiring less EPO with supplementation [3] | survivability under Paraquat-induced oxidative stress (Drosophila melanogaster; 1% w/w in yeast paste, over 10 days, 25 degrees C) | effect on survival under Paraquat-induced oxidative stress (words) (Drosophila melanogaster; listed as Vitamin D2) | effect on survival under Paraquat-induced oxidative stress (words) (Drosophila melanogaster; listed as Vitamin D2 in its pure form) | patients with a reduction in EPO dose after supplementation (hemodialysis patients) |
| --- | --- | --- | --- | --- | --- | --- | --- | --- | --- | --- |
| C[N+](C)(C)[C@@H](Cc1c[nH]c(=S)[nH]1)C(=O)[O-] [ET, L-Ergothioneine] | bioavailable | 2 h |  |  |  |  |  |  |  |  |
| C=C1CC[C@H](O)C/C1=C/C=C1\CCC[C@]2(C)[C@@H]([C@H](C)CCCC(C)C)CC[C@@H]12 [Vitamin D3, cholecalciferol] |  |  | no such effect | no beneficial effect |  |  |  |  |  |  |
| C=C1CC[C@H](O)C/C1=C/C=C1\CCC[C@]2(C)[C@@H]([C@H](C)/C=C/[C@H](C)C(C)C)CC[C@@H]12 [pure Vitamin D2, Ergocalciferol] |  |  | no such effect | no effect | 44% | 57% | 13%+/−3% | no beneficial effect | deleterious effect | 64% |
